14 compounds from patent US12172995B2, “Substituted indole and indazole compounds” (BRISTOL-MYERS SQUIBB COMPANY, priority 2018, dated 2024) can be followed below.

The term IC50 denotes the concentration that inhibits the measured activity by half. Higher therefore signals weaker potency.

What all share (assay type): cell-based
The target in experiment [1] is T1, human TLR8 (Homo sapiens, UniProt Q9NR97).
T1 construct: host or cells: HEK-Blue cells
T1 sequence (Q9NR97 27-1041): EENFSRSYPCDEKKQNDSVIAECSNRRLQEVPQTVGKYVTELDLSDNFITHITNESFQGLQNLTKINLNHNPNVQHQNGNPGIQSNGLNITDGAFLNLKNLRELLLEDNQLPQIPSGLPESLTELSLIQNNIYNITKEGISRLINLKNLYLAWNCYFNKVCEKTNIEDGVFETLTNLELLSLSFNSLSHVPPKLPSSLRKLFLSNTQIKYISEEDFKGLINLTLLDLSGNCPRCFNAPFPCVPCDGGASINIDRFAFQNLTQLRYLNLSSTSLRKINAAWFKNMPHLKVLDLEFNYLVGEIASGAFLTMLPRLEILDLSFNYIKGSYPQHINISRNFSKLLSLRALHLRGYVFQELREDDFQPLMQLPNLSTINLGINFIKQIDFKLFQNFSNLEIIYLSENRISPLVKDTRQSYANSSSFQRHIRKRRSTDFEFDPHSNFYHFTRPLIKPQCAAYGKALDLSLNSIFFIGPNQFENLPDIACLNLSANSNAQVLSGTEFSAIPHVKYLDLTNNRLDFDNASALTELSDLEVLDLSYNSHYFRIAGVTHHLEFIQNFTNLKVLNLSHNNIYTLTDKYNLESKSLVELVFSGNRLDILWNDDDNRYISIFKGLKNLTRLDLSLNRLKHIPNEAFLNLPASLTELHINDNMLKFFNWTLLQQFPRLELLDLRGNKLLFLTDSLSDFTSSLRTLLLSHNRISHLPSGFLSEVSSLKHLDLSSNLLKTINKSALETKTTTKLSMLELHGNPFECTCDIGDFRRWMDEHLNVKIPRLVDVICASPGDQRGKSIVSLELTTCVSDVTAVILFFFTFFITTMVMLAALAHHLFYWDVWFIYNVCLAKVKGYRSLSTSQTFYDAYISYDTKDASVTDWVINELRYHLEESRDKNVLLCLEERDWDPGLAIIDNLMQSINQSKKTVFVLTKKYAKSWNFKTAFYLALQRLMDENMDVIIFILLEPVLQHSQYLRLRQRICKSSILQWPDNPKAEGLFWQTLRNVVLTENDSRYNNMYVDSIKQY
Description: TLR8 inhibition reporter assay (HEK-Blue SEAP). To be noted: HEK-Blue cells overexpressing human TLR8, stimulated with R848 15.9 μM, 22 hour incubation. The gist of the method:
(§1)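 Reporter HEK-Blue lines; cpd 0.05 nM–50 μM, 30 min preincubation RT; agonist: TLR7 gardiquimod 7.5 μM, TLR8 R848 15.9 μM, TLR9 ODN2006 5 nM; 22 h 37 °C; SEAP detected colorimetrically; % inhib vs known inhibitor.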
(Reporter assays use an easily measured gene product as a stand-in for the process of interest.)

Experiment [2] deals with T2, human TLR9 (Homo sapiens, UniProt Q9NR96).
T2 construct: host or cells: HEK-Blue cells
T2 sequence (Q9NR96 26-1032): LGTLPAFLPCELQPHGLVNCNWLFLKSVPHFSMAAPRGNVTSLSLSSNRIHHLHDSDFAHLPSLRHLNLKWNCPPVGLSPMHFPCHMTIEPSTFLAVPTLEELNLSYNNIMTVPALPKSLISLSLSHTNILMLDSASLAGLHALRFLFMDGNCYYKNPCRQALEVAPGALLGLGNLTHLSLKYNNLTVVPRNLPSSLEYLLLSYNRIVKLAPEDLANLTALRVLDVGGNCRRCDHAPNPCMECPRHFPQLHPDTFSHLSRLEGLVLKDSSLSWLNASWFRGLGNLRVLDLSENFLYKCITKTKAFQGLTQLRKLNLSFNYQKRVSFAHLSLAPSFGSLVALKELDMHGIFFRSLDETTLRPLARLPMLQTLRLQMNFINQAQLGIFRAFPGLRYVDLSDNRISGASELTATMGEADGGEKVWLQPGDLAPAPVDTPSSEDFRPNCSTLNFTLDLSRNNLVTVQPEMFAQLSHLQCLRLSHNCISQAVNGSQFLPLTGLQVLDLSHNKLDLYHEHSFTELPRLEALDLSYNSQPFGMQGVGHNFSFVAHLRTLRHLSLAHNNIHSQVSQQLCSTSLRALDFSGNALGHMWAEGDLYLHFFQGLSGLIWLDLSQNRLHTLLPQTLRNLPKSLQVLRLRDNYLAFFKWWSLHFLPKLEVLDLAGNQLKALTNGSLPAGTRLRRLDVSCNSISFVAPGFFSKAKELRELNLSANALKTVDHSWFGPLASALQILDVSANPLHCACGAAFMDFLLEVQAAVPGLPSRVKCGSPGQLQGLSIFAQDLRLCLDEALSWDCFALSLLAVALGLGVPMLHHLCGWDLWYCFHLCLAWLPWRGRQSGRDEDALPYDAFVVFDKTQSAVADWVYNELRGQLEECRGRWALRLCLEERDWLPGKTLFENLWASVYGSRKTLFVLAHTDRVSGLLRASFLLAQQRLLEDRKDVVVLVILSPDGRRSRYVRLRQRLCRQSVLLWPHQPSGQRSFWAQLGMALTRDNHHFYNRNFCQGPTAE
Briefly: TLR9 inhibition reporter assay (HEK-Blue SEAP). To be noted: HEK-Blue cells overexpressing human TLR9, stimulated with ODN2006 5 nM, 22 hour incubation. An outline of the steps:
as §1

In experiment [3] the target is T3, human TLR7 (Homo sapiens, UniProt Q9NYK1).
T3 construct: host or cells: HEK-Blue cells
T3 sequence (Q9NYK1 27-1049): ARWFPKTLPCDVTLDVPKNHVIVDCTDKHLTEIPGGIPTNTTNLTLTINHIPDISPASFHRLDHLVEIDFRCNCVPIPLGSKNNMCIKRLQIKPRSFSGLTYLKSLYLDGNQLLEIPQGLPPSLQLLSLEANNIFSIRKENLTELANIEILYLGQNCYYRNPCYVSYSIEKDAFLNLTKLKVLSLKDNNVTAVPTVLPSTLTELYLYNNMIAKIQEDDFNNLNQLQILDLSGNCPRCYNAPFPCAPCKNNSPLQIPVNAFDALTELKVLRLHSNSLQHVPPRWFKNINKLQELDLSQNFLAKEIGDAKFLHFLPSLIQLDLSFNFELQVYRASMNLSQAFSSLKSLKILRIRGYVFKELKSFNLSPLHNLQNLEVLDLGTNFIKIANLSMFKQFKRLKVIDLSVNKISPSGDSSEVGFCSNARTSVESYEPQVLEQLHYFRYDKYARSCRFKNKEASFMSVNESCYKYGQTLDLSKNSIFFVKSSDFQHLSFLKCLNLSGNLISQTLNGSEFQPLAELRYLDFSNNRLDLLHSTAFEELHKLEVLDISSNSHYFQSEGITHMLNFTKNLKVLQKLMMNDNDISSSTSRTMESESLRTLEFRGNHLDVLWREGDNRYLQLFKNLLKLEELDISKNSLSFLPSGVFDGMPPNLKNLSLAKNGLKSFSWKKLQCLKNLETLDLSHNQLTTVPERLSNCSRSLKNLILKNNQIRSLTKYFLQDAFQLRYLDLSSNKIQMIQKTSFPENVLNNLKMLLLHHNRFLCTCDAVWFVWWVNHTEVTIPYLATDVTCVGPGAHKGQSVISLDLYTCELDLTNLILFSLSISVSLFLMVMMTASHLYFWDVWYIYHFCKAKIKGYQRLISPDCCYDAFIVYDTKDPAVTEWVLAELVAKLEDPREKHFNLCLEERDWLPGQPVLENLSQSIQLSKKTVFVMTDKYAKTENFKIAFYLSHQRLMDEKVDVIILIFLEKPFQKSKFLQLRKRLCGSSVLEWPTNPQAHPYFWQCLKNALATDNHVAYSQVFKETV
Description: TLR7 inhibition reporter assay (HEK-Blue SEAP). The settings on record: HEK-Blue cells overexpressing human TLR7, stimulated with gardiquimod 7.5 μM, 22 hour incubation. The gist of the method:
as §1

For the compound `Cc1cc(-c2cc(C)c3ncnn3c2)cc2[nH]nc(C3CCCN(CC(=O)N(C)C)C3)c12` (stereo not drawn) [Example 59, N,N-dimethyl-2-(3-(4-methyl-6-(8-methyl-[1,2,4]triazolo[1,5-a]pyridin-6-yl)-1H-indazol-3-yl)piperidin-1-yl)acetamide], the values for the 50% inhibitory concentration (IC50) in experiment [1], in experiment [2] and in experiment [3] were 43.9 nM, 3210 nM and 10.5 nM, respectively.
For `Cc1cc(-c2cc(C)c3ncnn3c2)cc2[nH]nc(C3CCCN(C4CCOCC4)C3)c12` (stereo not drawn) [Example 60, 8-methyl-6-(4-methyl-3-(1-(tetrahydro-2H-pyran-4-yl)piperidin-3-yl)-1H-indazol-6-yl)-[1,2,4]triazolo[1,5-a]pyridine] the same measures were 62.2 nM, 4250 nM and 79.3 nM.
For `Cc1cc(-c2cc(C)c3ncnn3c2)cc2[nH]nc(C3CCCN(C)C3)c12` (stereo not drawn) [Example 61, 8-methyl-6-(4-methyl-3-(1-methylpiperidin-3-yl)-1H-indazol-6-yl)-[1,2,4]triazolo[1,5-a]pyridine] the same measures were 19.5 nM, 3340 nM and 13.5 nM.
For `COc1ccc(-c2cc3[nH]nc(C4CCCNC4)c3cc2C)cc1OC` (stereo not drawn) [Example 62, 6-(3,4-dimethoxyphenyl)-5-methyl-3-(piperidin-3-yl)-1H-indazole] the same measures were 5.2 nM, 3200 nM and 824 nM.
Turning to `COc1cc(-c2cc3[nH]ncc3cc2C)cn2ncnc12` [Example 64, 8-methoxy-6-(5-methyl-1H-indazol-6-yl)-[1,2,4]triazolo[1,5-a]pyridine], the IC50 in experiment [1] came to 41.8 nM; in experiment [2], 9040 nM; in experiment [3], 905 nM.
For `Cc1cc(-c2cc(C)c3ncnn3c2)cc2[nH]ncc12` [Example 65, 8-methyl-6-(4-methyl-1H-indazol-6-yl)-[1,2,4]triazolo[1,5-a]pyridine] the same measures were 47 nM, at least 50000 nM and 219 nM.
For `COc1cc(-c2cc(C)c3cn[nH]c3c2)cn2ncnc12` [Example 66, 8-methoxy-6-(4-methyl-1H-indazol-6-yl)-[1,2,4]triazolo[1,5-a] pyridine] the same measures were 45.4 nM, 8840 nM and 218 nM.
For `Cc1cc2c(C3CCN(CC(C)(C)O)CC3)n[nH]c2cc1-c1cc(C)c2ncnn2c1` [Example 67, 2-methyl-1-(4-(5-methyl-6-(8-methyl-[1,2,4]triazolo[1,5-a]pyridin-6-yl)-1H-indazol-3-yl)piperidin-1-yl)propan-2-ol] the same measures were 0.9 nM, 3960 nM and 23.8 nM.
Turning to `Cc1cc2c(C3CCN(CCS(C)(=O)=O)CC3)n[nH]c2cc1-c1cc(C)c2ncnn2c1` [Example 68, 8-methyl-6-(5-methyl-3-(1-(2-(methylsulfonyl)ethyl)piperidin-4-yl)-1H-indazol-6-yl)-[1,2,4]triazolo[1,5-a]pyridine], the IC50 in experiment [1] amounted to 2.5 nM; in experiment [2], 13000 nM; in experiment [3], 68 nM.
`Cc1cc2c(C3CCN(CCNS(C)(=O)=O)CC3)n[nH]c2cc1-c1cc(C)c2ncnn2c1` [Example 69, N-(2-(4-(5-methyl-6-(8-methyl-[1,2,4]triazolo[1,5-a]pyridin-6-yl)-1H-indazol-3-yl)piperidin-1-yl)ethyl) methanesulfonamide]: the half-inhibitory concentration (IC50) in experiment [1] came out at 1.4 nM; in experiment [2] it was 1310 nM; in experiment [3], 18 nM.
Take `Cc1cc2c(C3CCN(CC(N)=O)CC3)n[nH]c2cc1-c1cc(C)c2ncnn2c1` [Example 70, 2-(4-(5-methyl-6-(8-methyl-[1,2,4]triazolo[1,5-a]pyridin-6-yl)-1H-indazol-3-yl)piperidin-1-yl)acetamide]: the IC50 amounted to 1.4 nM in experiment [1], 6210 nM in experiment [2] and 18.3 nM in experiment [3].
As to `Cc1cc2c(C3CCN(CC#N)CC3)n[nH]c2cc1-c1cc(C)c2ncnn2c1` [Example 71, 2-(4-(5-methyl-6-(8-methyl-[1,2,4]triazolo[1,5-a]pyridin-6-yl)-1H-indazol-3-yl)piperidin-1-yl)acetonitrile], the values for the IC50 in experiment [1], in experiment [2] and in experiment [3] were 3.3 nM, 1370 nM and 9.8 nM, respectively.
For `Cc1cc2c(C3CCN(CCC#N)CC3)n[nH]c2cc1-c1cc(C)c2ncnn2c1` [Example 72, 3-(4-(5-methyl-6-(8-methyl-[1,2,4]triazolo[1,5-a]pyridin-6-yl)-1H-indazol-3-yl)piperidin-1-yl)propanenitrile] the same measures were 2.3 nM, 11200 nM and 50.8 nM.
For `Cc1cc2c(C3CCN(C4COC4)CC3)n[nH]c2cc1-c1cc(C)c2ncnn2c1` [Example 73, 8-methyl-6-(5-methyl-3-(1-(oxetan-3-yl)piperidin-4-yl)-1H-indazol-6-yl)-[1,2,4] triazolo[1,5-a]pyridine] the same measures were 4.3 nM, 9070 nM and 52.3 nM.
